Experiments:
[1] = tested on: Lewis Lung, mouse lung; assay: Cell proliferation 96-welled in vitro MTT assay, Lewis Lung; assay type: cell-based; conditions: Lewis lung carcinoma, 72 hr incubation, triplicate
Experimental: (§1) In vitro Efficacy: The Compounds were tested in a Cell Proliferation 96-welled in vitro MTT assay
(§2) The tests were done in triplicate and the test samples included negative control, positive control and ACB compounds at several concentrations (10^−4 to 10^−8) in 0.4% DMSO/DW medium. The incubation time was 72 hr and the IC50 was calculated from the generated inhibition curves.

[2] = Body weight of nude mice in the NCI-H460 xenograft study; assay type: in vivo, BALB/c nude mice; conditions: after four weeks, twice every week, model 22.07 ± 1.68
Description: (§3) BALB/c nude mice, were provided by Shanghai SLAC Experimental Animal Co., Ltd. (Experimental animal production license:SCXK (Shanghai) 2003-0003; Experimental animal application license:SYXK (Jiangsu) 2002-0053). The ages of the mice was 35-40 days; their body weight was 18-22 g; half of the mice were female and the other half were male. Eight nude mice were used per group.
(§4) The tumor growing in Log phase was isolated from nude mice and sliced into 1.5 mm^3 particles. Under SPF conditions, the tumor particles were inoculated s.c. of nude mice right axilla. The xenografted tumor was measured the length and width by vernier caliper. Nude mice were randomly divided into eight groups when the bearing tumor reached 100-300mm^3 volume. Tumor length and width were measured twice every week to dynamic evaluate the anticancer activity of the tested compounds. Compound 1 was given by i.p. twice every week, compound 2 was given by i.v. twice every week, compound 3 was given by i.v. twice every week, control Topotecan was given by i.v. twice every week. In model group saline was give i.v. twice every week. After four weeks drug administration, nude mice were sacrificed and tumor was isolated by surgery for weight detection.

[3] = tested on: P388, Mouse Lymphoma; assay: Cell proliferation 96-welled in vitro MTT assay, P388; assay type: cell-based; conditions: 72 hr incubation, triplicate
Experimental: as §1, §2

[4] = tested on: HT-29, Human Colorectal; assay: Cell proliferation 96-welled in vitro MTT assay, HT-29; assay type: cell-based; conditions: 72 hr incubation, triplicate
Experimental: as §1, §2

[5] = tested on: MCF-7, Human Breast; assay: Cell proliferation 96-welled in vitro MTT assay, MCF-7; assay type: cell-based; conditions: MCF7, 72 hr incubation, triplicate
Experimental: as §1, §2

[6] = tested on: NCI-H460 human non-small cell lung cancer; assay: NCI-H460 human non-small cell lung cancer nude mice xenograft model; assay type: in vivo, BALB/c nude mice; conditions: for Tumor Weight / Tumor Inhibitory Growth Weight: after four weeks; for Tumor Weight: twice every week, model 3.08 ± 0.88; for effect on nude mice xenograft NCI-H460 human non-small cell lung cancer growth (in words): mouse, in vivo; for dose dependence of anticancer effect (in words): two dosages per compound
Description: In this study the NCI-H460 human non-small cell lung cancer nude mice xenograft model was established and applied for in vivo anti-cancer activity evaluation of three compounds of the invention.
as §3
NCI-H460 human non-small cell lung cancer nude mice xenograft model was established by s.c. injection of 1×10^6 NCI-H460 cells into nude mice axilla. After formation of tumor the xenograft was passaged for three generations in nude mice.
as §4
Tumor volume (TV) was calculated by the following formula: TV=1/2×a×b2 a and b represent length and width, respectively.

[7] = Dosage 1: topotecan 2 i.v., Compound 1 0.625 i.p., Compound 2 5 i.v., Compound 3 1.5625 i.v. (mg/kg)
[8] = Dosage 2: Compound 1 0.3125 i.p., Compound 2 2.5 i.v., Compound 3 0.78125 i.v. (mg/kg)
[9] = 0.5 week, Dosage 1: topotecan 2, Compound 1 0.625, Compound 2 5, Compound 3 1.5625 mg/kg, X ± SD, n = 8
[10] = 0.5 week, Dosage 2: Compound 1 0.3125, Compound 2 2.5, Compound 3 0.78125 mg/kg, X ± SD, n = 8
[11] = 1 week, Dosage 1: topotecan 2, Compound 1 0.625, Compound 2 5, Compound 3 1.5625 mg/kg
[12] = 1 week, Dosage 2: Compound 1 0.3125, Compound 2 2.5, Compound 3 0.78125 mg/kg
[13] = 1.5 weeks, Dosage 1: topotecan 2, Compound 1 0.625, Compound 2 5, Compound 3 1.5625 mg/kg
[14] = 1.5 weeks, Dosage 2: Compound 1 0.3125, Compound 2 2.5, Compound 3 0.78125 mg/kg
[15] = 2 weeks, Dosage 1: topotecan 2, Compound 1 0.625, Compound 2 5, Compound 3 1.5625 mg/kg
[16] = 2 weeks, Dosage 2: Compound 1 0.3125, Compound 2 2.5, Compound 3 0.78125 mg/kg
[17] = 2.5 weeks, Dosage 1: topotecan 2, Compound 1 0.625, Compound 2 5, Compound 3 1.5625 mg/kg
[18] = 2.5 weeks, Dosage 2: Compound 1 0.3125, Compound 2 2.5, Compound 3 0.78125 mg/kg
[19] = 3 weeks, Dosage 1: topotecan 2, Compound 1 0.625, Compound 2 5, Compound 3 1.5625 mg/kg
[20] = 3 weeks, Dosage 2: Compound 1 0.3125, Compound 2 2.5, Compound 3 0.78125 mg/kg
[21] = 3.5 weeks, Dosage 1: topotecan 2, Compound 1 0.625, Compound 2 5, Compound 3 1.5625 mg/kg
[22] = 3.5 weeks, Dosage 2: Compound 1 0.3125, Compound 2 2.5, Compound 3 0.78125 mg/kg
[23] = 4 weeks, Dosage 1: topotecan 2, Compound 1 0.625, Compound 2 5, Compound 3 1.5625 mg/kg
[24] = 4 weeks, Dosage 2: Compound 1 0.3125, Compound 2 2.5, Compound 3 0.78125 mg/kg
[25] = higher dosage: compound 3 1.5625 mg/kg i.v., compound 2 5 mg/kg i.v., compound 1 0.625 mg/kg i.p., topotecan 2 mg/kg i.v.
[26] = lower dosage: compound 3 0.78125 mg/kg i.v., compound 2 2.5 mg/kg i.v., compound 1 0.3125 mg/kg i.p.

Structure (SMILES) | IC50 [1] [µM] | Ending Body Weight [2, 7] [g] | Ending Body Weight [2, 8] [g] | IC50 [3] [µM] | IC50 [4] [µM] | IC50 [5] [µM] | Tumor Volume [6, 9] [mm3] | Tumor Volume [6, 10] [mm3] | Tumor Volume [6, 11] [mm3] | Tumor Volume [6, 12] [mm3] | Tumor Volume [6, 13] [mm3] | Tumor Volume [6, 14] [mm3] | Tumor Volume [6, 15] [mm3] | Tumor Volume [6, 17] [mm3] | Tumor Volume [6, 19] [mm3] | Tumor Volume [6, 21] [mm3] | Tumor Volume [6, 23] [mm3] | Tumor Weight [6, 7] [g] | Tumor Inhibitory Growth Weight [6, 7] | inhibitory rate [6, 25] [%] | also measured
CCC1(OC(=O)CNC(=O)/C=C\C(=O)O)C(=O)OCc2c1cc1n(c2=O)Cc2cc3ccccc3nc2-1 (stereo not shown) [Compound 1] | 6.34 | 18.86 ± 1.60 | 18.59 ± 1.46 | 10.9 | 44.3 | 20.4 | 220.9 | 194.9 | 504.2 | 560.8 | 706.7 ± 450.3 | 766.0 ± 480.3 | 1104.7 ± 759.6 | 1367.1 ± 880.2 | 1566.7 ± 867.8 | 1798.2 ± 767.2 | 2088.1 | 1.77 ± 0.73 | 42.5 | 42.5 | Tumor Volume [6, 16]: 1245.7 ± 585.6 mm3; Tumor Volume [6, 18]: 1459.9 ± 793.3 mm3; Tumor Volume [6, 20]: 1638.9 ± 827.1 mm3; Tumor Volume [6, 22]: 1909.7 ± 464.4 mm3; Tumor Volume [6, 24]: 2209.8 mm3; Tumor Weight [6, 8]: 1.85 ± 0.75 g; Tumor Inhibitory Growth Weight [6, 8]: 39.9; inhibitory rate [6, 26]: 39.9%; effect on nude mice xenograft NCI-H460 human non-small cell lung cancer growth (in words) [6]: could inhibit; dose dependence of anticancer effect (in words) [6]: dose-dependent anticancer effect
CCCS(=O)(=O)Oc1ccc2nc3c(cc2c1CN(C)C)Cn1c-3cc2c(c1=O)COC(=O)C2(CC)OC(=O)CNC(=O)/C=C\C(=O)O (stereo not shown) [Compound 2] | 12.8 | 18.93 ± 1.49 | 17.82 ± 1.06 | 10.6 | 50.8 | 30.8 | 205.2 | 182.6 | 413.8 | 472.2 | 602.1 ± 339.3 | 706.8 ± 360.0 | 733.7 ± 497.0 | 950.0 ± 578.0 | 1147.2 ± 598.0 | 1632.9 ± 752.6 | 1639.4 | 1.55 ± 0.51 | 49.7 | 49.7 | Tumor Volume [6, 16]: 861.1 ± 523.9 mm3; Tumor Volume [6, 18]: 1084.9 ± 536.3 mm3; Tumor Volume [6, 20]: 1269.1 ± 644.1 mm3; Tumor Volume [6, 22]: 1841.8 ± 859.5 mm3; Tumor Volume [6, 24]: 2029.4 mm3; Tumor Weight [6, 8]: 1.75 ± 0.90 g; Tumor Inhibitory Growth Weight [6, 8]: 43.2; inhibitory rate [6, 26]: 43.2%; effect on nude mice xenograft NCI-H460 human non-small cell lung cancer growth (in words) [6]: could inhibit; dose dependence of anticancer effect (in words) [6]: dose-dependent anticancer effect
CC[C@@]1(OC(=O)CNC(=O)/C=C\C(=O)O)C(=O)OCc2c1cc1n(c2=O)Cc2cc3c(CN(C)C)c(OS(=O)(=O)C(C)C)ccc3nc2-1 [Compound 3] | 0.929 | 19.63 ± 0.77 | 18.42 ± 1.04 | 0.0847 | 14.3 | 9.79 | 237.9 | 211.8 | 392.9 | 455.2 | 547.2 ± 390.0 | 624.6 ± 371.5 | 719.6 ± 315.8 | 958.4 ± 486.2 | 1093.2 ± 692.2 | 1400.4 ± 670.6 | 1588.3 | 1.36 ± 0.50 | 55.8 | 55.8 | Tumor Volume [6, 16]: 795.4 ± 389.0 mm3; Tumor Volume [6, 18]: 999.8 ± 562.9 mm3; Tumor Volume [6, 20]: 1291.5 ± 564.4 mm3; Tumor Volume [6, 22]: 1553.2 ± 706.3 mm3; Tumor Volume [6, 24]: 1908.5 mm3; Tumor Weight [6, 8]: 1.65 ± 0.86 g; Tumor Inhibitory Growth Weight [6, 8]: 46.4; inhibitory rate [6, 26]: 46.4%; effect on nude mice xenograft NCI-H460 human non-small cell lung cancer growth (in words) [6]: could inhibit; dose dependence of anticancer effect (in words) [6]: dose-dependent anticancer effect
CC[C@@]1(O)C(=O)OCc2c1cc1n(c2=O)Cc2cc3c(CN(C)C)c(O)ccc3nc2-1 [topotecan, Topotecan, reference compound] | 11 | 17.32 ± 1.18 | – | 18.5 | 22.9 | 22.2 | 209.6 | – | 574.0 | – | 759.8 ± 419.9 | – | 933.1 ± 496.8 | 1220.7 ± 611.4 | 1273.3 ± 685.1 | 1413.0 ± 717.0 | 1639.9 | 1.58 ± 0.74 | 48.7 | 48.7 | –

From patent US20080255175A1, “Anti-cancer agents, compositions and methods of treating cancers” (priority 2007, published 2008)
